The results in this text go back to publication PMC12040169 (PLOS Biology, 2025).

Broadly, the viability is a read-out of living cells in per cent, often relative to untreated cells.

The nature of the first data set: in vitro. Particulars: human, hela cells, % viability.
For `COC(=O)CNC(=O)c1nc(SC)ncc1Cl` [CBK057651], the viability at 28.5 h, 10 µM is 107%. Consider `CCOC(=O)NC(NCc1ccco1)(C(F)(F)F)C(F)(F)F` [CBK057654], for which the viability at 28.5 h, 10 µM turned out to be 102%. Turning to `CCCCc1ccc(NC(=O)CSc2nnc(N)s2)c(C)c1` [CBK057659], the viability at 28.5 h, 10 µM was determined as 91.9%. The same measure, in the same setting: in the case of `O=C(Nc1ccccc1)c1cc2sccc2s1` [CBK057696] it was 87.9%; in that of `CCOC(=O)CNc1ccc(C(F)(F)F)cc1` [CBK057732], 94.4%.

Turning to `CC(=O)c1ccccc1NC(=O)CSCC(=O)O` [CBK057752], the viability at 28.5 h, 10 µM came out at 92.2%.

Take `CC(=O)c1ccccc1NC(C#N)c1ccccc1` (centres unmarked) [CBK057758]: the viability at 28.5 h, 10 µM came to 99.6%. As to `O=C(Nc1cc(Cl)cc(Cl)c1)c1csnn1` [CBK057759], the viability at 28.5 h, 10 µM is 88.1%. The same measure, in the same setting: in the case of `CCOC(=O)c1csc(COc2ccccc2Cl)n1` [CBK057782] it was 113%; in that of `O=C(Nc1ccno1)Nc1ccc(Cl)cc1Cl` [CBK057809], 94.6%.

Regarding `CSc1nnc(SCC(=O)N2CCC(C(F)(F)F)CC2)s1` [CBK057829], the viability at 28.5 h, 10 µM came out at 111%. On to `CCOC(=O)c1sc(NC(=O)C2CCCCC2)nc1C` [CBK057893], for which the viability at 28.5 h, 10 µM came out at 92.3%. Still for that read-out and setting: then `CCOc1ccccc1NC(=O)c1cc(CC(C)C)oc1C` [CBK057904], with 101%. On the same count and under the same terms, then `O=C(CC1SC(=O)NC1=O)Nc1ccccc1O` (centres unmarked) [CBK057932], with 98.5%. Same read-out and setting: in the case of `CCc1cc2c(NCc3ccccc3)ncnc2s1` [CBK057944] it was 91.4%. Consider `CC1CC(Nc2ccccc2)c2ccccc2N1` (centres unmarked) [CBK057947], for which the viability at 28.5 h, 10 µM was 86.6%. On the same count and under the same terms, then `CCC(C)c1ccc(NC(=O)c2cccnc2)cc1` (centres unmarked) [CBK057967], with 85.9%; and `COC(=O)C(CCSC)NC(=O)c1cccs1` (centres unmarked) [CBK057972], with 94%; and `CCCC(C)C(=O)Nc1ccncc1` (centres unmarked) [CBK057984], with 87.1%. For `O=C(O)CC(NC(=O)c1ccco1)c1ccc(F)cc1` (centres unmarked) [CBK057988], the viability at 28.5 h, 10 µM came out at 107%. On to `NS(=O)(=O)c1cnccc1NCCc1ccccc1` [CBK058003], for which the viability at 28.5 h, 10 µM is 103%. Turning to `O=C(Nc1nccs1)c1cccc(Cl)c1Cl` [CBK058011], the viability at 28.5 h, 10 µM is 112%. As for `Cc1nnc(N/N=C/c2ccc(OC3CCCC3)cc2)nc1O` [CBK058025], the viability at 28.5 h, 10 µM was 104%. The same measure, in the same setting: then `N=C(N)CCCOc1ccccc1-c1ccccc1` [CBK058057], with 100%; and `Nc1nc(-c2ccccc2)c(C(=O)Nc2ccccc2)s1` [CBK058068], with 95.2%; and `CCOC(=O)CNC(=O)c1cc2ccccc2c(=O)o1` [CBK058083], with 97.9%. Consider `O=C(NC1CCCC1)c1ccc(=O)[nH]c1` [CBK058093], for which the viability at 28.5 h, 10 µM turned out to be 104%. Regarding `COc1ccc(-c2nc(NC3CCCCC3)c3ccccc3n2)cc1` [CBK058109], the viability at 28.5 h, 10 µM was 95.6%. Same read-out and setting: then `CC1CCCCC1NC(=O)CSc1cccc2cccnc12` (centres unmarked) [CBK058143], with 96.9%; and `CCCCCC(=O)Nc1c(C)cc(Br)cc1C` [CBK058159], with 116%. Same read-out and setting: then `COc1ccc(C(=O)NCC2(c3ccccc3)CCCC2)c(OC)c1` [CBK058164], with 113%; and `Clc1ccc(-c2csc(NCc3ccco3)n2)cc1` [CBK058168], with 109%.

In the case of `CC(C)=C(NC(=O)c1ccccc1)C(=O)Nc1cccc(C(=O)O)c1` [CBK058180], the viability at 28.5 h, 10 µM amounted to 105%.

On to `O=C(CSCC(=O)Nc1ccc2ccccc2c1)NCC1CCCO1` (centres unmarked) [CBK058183], for which the viability at 28.5 h, 10 µM stood at 89.6%. On the same count and under the same terms, then `Cc1ccc(C(C)C)c(OCC(=O)n2nc(C)cc2C)c1` [CBK058196], with 87.9%; and `O=c1cc(C(F)(F)F)c2ccc(OCc3ccc(Cl)cc3)cc2o1` [CBK058200], with 93%; and `O=C(CSc1ncccn1)Nc1cccc(Cl)c1` [CBK058217], with 87.6%. In the case of `Cc1ccccc1C(=O)Nc1ccc(F)c(F)c1` [CBK058249], the viability at 28.5 h, 10 µM stood at 96.1%. Same read-out and setting: then `Cc1ccc(NC(=O)c2ccncc2)c(Br)c1` [CBK058282], with 94.1%; and `O=C(Nc1ccc2c(c1)OCO2)c1cccc(I)c1` [CBK058308], with 85.7%. For `CCN(CC)S(=O)(=O)c1cc(C(=O)NC2CCCCC2)ccc1Br` [CBK058354], the viability at 28.5 h, 10 µM came out at 96.3%. For the compound `COC(=O)c1ccccc1NC(=O)c1ccc(-n2cnnn2)cc1` [CBK058360], the viability at 28.5 h, 10 µM was 91.1%. On the same count and under the same terms, in the case of `CCCCCc1nnc(NC(=O)c2cccs2)s1` [CBK058382] it was 103%; in that of `COc1ccc(/C=C/C(=O)O)cc1S(=O)(=O)N1CCCC1` [CBK058388], 93.5%; in that of `Cc1cc(C)nc(NC(=O)c2c(Cl)cccc2Cl)n1` [CBK058401], 99.9%.

With `CCn1cc(Cl)c(C(=O)Nc2ccsc2C(=O)OC)n1` [CBK058439], the viability at 28.5 h, 10 µM is 90.9%.

`Cc1ccc(S(=O)(=O)N2CC=CCC2)cc1` [CBK058443]: the viability at 28.5 h, 10 µM amounted to 89%.

`CCOC(=O)CNC(=O)c1cc(Br)c(OC)c(OC)c1` [CBK058454]: the viability at 28.5 h, 10 µM was found to be 116%. Turning to `CC1CCN(C(=O)c2cccc(Cn3cc(Br)cn3)c2)CC1` [CBK058482], the viability at 28.5 h, 10 µM turned out to be 91.8%. Still for that read-out and setting: then `O=C(CSc1ncn[nH]1)Nc1ncccn1` [CBK058488], with 105%. Same read-out and setting: then `COCCOc1nc2ccccc2nc1C` [CBK058489], with 103%; and `O=C(Cc1ccc(Br)cc1)N1CCC(Cc2ccccc2)CC1` [CBK058493], with 96.7%. Still for that read-out and setting: in the case of `O=C(CCN1CCN(CCO)CC1)Nc1cccc(Br)c1` [CBK058502] it was 102%.

For `O=C(Nc1ccc(F)cc1)Nc1cccnc1Cl` [CBK058509], the viability at 28.5 h, 10 µM was determined as 90.4%. Still for that read-out and setting: then `O=C(c1cc2ncc(Br)cn2n1)N1CCOCC1` [CBK058513], with 97.9%; and `Cc1ccccc1CSCC(=O)N1CCN(c2ccccc2)CC1` [CBK058577], with 89%; and `COc1ccc(C(=O)N2CCN(Cc3ccc(SC)cc3)CC2)cc1` [CBK058613], with 112%.

Take `CC(C)OC(=O)c1ccc(NC(=O)c2csc3c2CCCC3)cc1` [CBK058649]: the viability at 28.5 h, 10 µM turned out to be 106%. Regarding `O=C(COc1ccc(Cl)cc1Br)N1CCCCCC1` [CBK058661], the viability at 28.5 h, 10 µM came to 82.8%. `O=C(Nc1cccc(-c2nc3ncccc3o2)c1)c1cccnc1Cl` [CBK058695]: the viability at 28.5 h, 10 µM turned out to be 92%. Still for that read-out and setting: in the case of `CC(C)(C)c1csc(NC(=O)C2CCCCC2)n1` [CBK058720] it was 98.1%; in that of `Cc1ccc(CSCC(=O)N2CCC(Cc3ccccc3)CC2)cc1` [CBK058739], 95.6%; in that of `CC1CCCCN1C(=O)c1cccc(Cn2cc(Br)c([N+](=O)[O-])n2)c1` (centres unmarked) [CBK058788], 104%. Turning to `CC(C)COC(=O)n1ccc(C(=O)N2CCCCC2)n1` [CBK058828], the viability at 28.5 h, 10 µM is 84.9%. On to `COC(=O)c1csc2nc(NCCCO)sc12` [CBK058832], for which the viability at 28.5 h, 10 µM is 91.4%.

For `COc1cc(C)nc(OCCNS(=O)(=O)c2cc(C)ccc2C)n1` [CBK058870], the viability at 28.5 h, 10 µM came to 91.9%. With `Cc1ccc(OCC(O)CN2CCN(c3ccccn3)CC2)cc1C` (centres unmarked) [CBK058884], the viability at 28.5 h, 10 µM was 86.9%. For the compound `O=C(O)c1cc(S(=O)(=O)NCc2ccco2)ccc1Cl` [CBK058905], the viability at 28.5 h, 10 µM was 85.4%.

On to `O=C(NC(Cc1cnc[nH]1)C(=O)O)c1ccccc1` (centres unmarked) [CBK059018], for which the viability at 28.5 h, 10 µM was found to be 102%.

In the case of `O=S(=O)(c1ccc(F)c(F)c1F)n1ccc2c(N3CCNCC3)nccc21` [CBK059066C], the viability at 28.5 h, 10 µM is 106%. Same read-out and setting: then `CCC(C)NC1=NC(=O)C(CC(=O)N(C)c2ccccc2)S1` (centres unmarked) [CBK059110T], with 83.3%. For `CCC(C)NC1=NC(=O)C(CC(=O)Nc2ccccc2Cl)S1` (centres unmarked) [CBK059133T], the viability at 28.5 h, 10 µM came to 97.3%. The same measure, in the same setting: in the case of `CC1(c2ccccc2)CC(C)(C)N(C(=O)C2CCCO2)c2ccccc21` (centres unmarked) [CBK059175] it was 97.5%; in that of `CN1CCN(CC(=O)N2c3ccccc3C(C)(c3ccc(Cl)cc3)CC2(C)C)CC1` (centres unmarked) [CBK059202], 88.1%; in that of `CNC(=O)c1nc(NC)oc1C` [CBK059214], 94.4%.

Take `FC(F)(F)Oc1ccc(-c2cncc(N3CCN(c4ccncc4)CC3)n2)cc1` [CBK059230C]: the viability at 28.5 h, 10 µM turned out to be 88.9%.

Turning to `COc1ccc([C@@]23CC[C@@H](NC(=O)Nc4cccc(-c5cnco5)c4)C[C@@H]2N(C)CC3)cc1OC` [CBK059338T], the viability at 28.5 h, 10 µM is 92.3%. On the same count and under the same terms, in the case of `COc1ccc(C2CCCC(N(CCN(C)C)C(=O)Nc3ccc(F)c(F)c3)C2)cc1OC` (centres unmarked) [CBK059339C] it was 84.8%. For the compound `O=S(=O)(CC(F)(F)F)Nc1ccc(N2CCNCC2)c2ccccc12` [CBK059354C], the viability at 28.5 h, 10 µM was 90.6%.

For `O=C(Nc1ccccc1-n1cccc1)C1Cc2c([nH]c3ccccc23)C2(CCN(Cc3ccccc3)C2)N1` (centres unmarked) [CBK059395], the viability at 28.5 h, 10 µM is 95.9%. On the same count and under the same terms, then `O=C(CN1CCc2c([nH]c3ccccc23)C12CCN(Cc1ccc(F)cc1)C2)Nc1ccccc1` (centres unmarked) [CBK059450], with 96%; and `O=C(Cc1ccccc1)N1CCc2c([nH]c3ccccc23)C12CCNC2` (centres unmarked) [CBK059461], with 98.9%.

On to `CC(C)(C)C(=O)N1CCc2c([nH]c3ccccc23)C12CCNC2` (centres unmarked) [CBK059462], for which the viability at 28.5 h, 10 µM came out at 97.5%. Same read-out and setting: then `Fc1ccc(CN2CCC3(C2)c2[nH]c4ccccc4c2CCN3Cc2ccc(F)cc2)cc1` (centres unmarked) [CBK059467], with 85.8%; and `COc1cccc(CN2CCC3(C2)c2[nH]c4ccccc4c2CCN3Cc2cccc(OC)c2)c1` (centres unmarked) [CBK059468], with 90.5%.

The data set is the same for the next values; noted with them: human, hela cells, % viability, bulk resorufin, single well.
Regarding `COc1ccc(CCNCc2cccc(Cl)c2)cc1` [CBK058787], the viability at 28.5 h, 10 µM was determined as 90%.
